The source made the active and inactive calls. No rule for the calls is given here.
System: CCRIS mutagenicity, Ames/micronucleus/aberration tests
Assay: CCRIS mutagenicity studies
[1] = Test System: AMES SALMONELLA TYPHIMURIUM, Strain/Indicator: TA98, Metabolic Activation: HAMSTER, LIVER, S-9, AROCLOR 1254, Method: STANDARD PLATE
[2] = Test System: AMES SALMONELLA TYPHIMURIUM, Strain/Indicator: TA98, Metabolic Activation: NONE, Method: STANDARD PLATE
[3] = Test System: AMES SALMONELLA TYPHIMURIUM, Strain/Indicator: TA98, Metabolic Activation: RAT, LIVER, S-9, AROCLOR 1254, Method: STANDARD PLATE
[4] = Test System: AMES SALMONELLA TYPHIMURIUM, Strain/Indicator: TA100, Metabolic Activation: HAMSTER, LIVER, S-9, AROCLOR 1254, Method: STANDARD PLATE
[5] = Test System: AMES SALMONELLA TYPHIMURIUM, Strain/Indicator: TA100, Metabolic Activation: NONE, Method: STANDARD PLATE
[6] = Test System: AMES SALMONELLA TYPHIMURIUM, Strain/Indicator: TA100, Metabolic Activation: RAT, LIVER, S-9, AROCLOR 1254, Method: STANDARD PLATE
[7] = Test System: AMES SALMONELLA TYPHIMURIUM, Strain/Indicator: TA1535, Metabolic Activation: HAMSTER, LIVER, S-9, AROCLOR 1254, Method: STANDARD PLATE
[8] = Test System: AMES SALMONELLA TYPHIMURIUM, Strain/Indicator: TA1535, Metabolic Activation: NONE, Method: STANDARD PLATE
[9] = Test System: AMES SALMONELLA TYPHIMURIUM, Strain/Indicator: TA1535, Metabolic Activation: RAT, LIVER, S-9, AROCLOR 1254, Method: STANDARD PLATE
[10] = Test System: AMES SALMONELLA TYPHIMURIUM, Strain/Indicator: TA1537, Metabolic Activation: HAMSTER, LIVER, S-9, AROCLOR 1254, Method: STANDARD PLATE
[11] = Test System: AMES SALMONELLA TYPHIMURIUM, Strain/Indicator: TA1537, Metabolic Activation: NONE, Method: STANDARD PLATE
[12] = Test System: AMES SALMONELLA TYPHIMURIUM, Strain/Indicator: TA1537, Metabolic Activation: RAT, LIVER, S-9, AROCLOR 1254, Method: STANDARD PLATE
[13] = Test System: AMES SALMONELLA TYPHIMURIUM, Strain/Indicator: TA1538, Metabolic Activation: HAMSTER, LIVER, S-9, AROCLOR 1254, Method: STANDARD PLATE
[14] = Test System: AMES SALMONELLA TYPHIMURIUM, Strain/Indicator: TA1538, Metabolic Activation: NONE, Method: STANDARD PLATE
[15] = Test System: AMES SALMONELLA TYPHIMURIUM, Strain/Indicator: TA1538, Metabolic Activation: RAT, LIVER, S-9, AROCLOR 1254, Method: STANDARD PLATE

SMILES	mutagenic call [1]	mutagenic call [2]	mutagenic call [3]	mutagenic call [4]	mutagenic call [5]	mutagenic call [6]	mutagenic call [7]	mutagenic call [8]	mutagenic call [9]	mutagenic call [10]	mutagenic call [11]	mutagenic call [12]	mutagenic call [13]	mutagenic call [14]	mutagenic call [15]	further results
COc1cc(/C=C/C(=O)CC(=O)/C=C/c2ccc(O)c(OC)c2)ccc1O	inactive; negative	inactive; negative	inactive; negative	inactive; negative	inactive; negative	inactive; negative	inactive; negative	inactive; negative	inactive; negative	inactive; negative	inactive; negative	inactive; negative	inactive; negative	inactive; negative	inactive; negative	mutagenic call (End Point: IN VITRO CHROMOSOMAL ABERRATIONS, Test System: CHO CELLS, Metabolic Activation: NONE): active; positive (structural changes); presence of iron significantly decreased number o; mutagenic call (End Point: IN VITRO CHROMOSOMAL ABERRATIONS, Test System: CHO-9 CELLS, Metabolic Activation: NONE): active; positive (structural changes); mutagenic call (End Point: IN VIVO CHROMOSOMAL ABERRATIONS, Test System: BONE MARROW CELLS, Species: RAT, Strain/Sex: WISTAR/MALE, Route: GAVAGE): inactive; negative; curcumin reduced mutagenic effect of cyclophosphamide; mutagenic call (End Point: In vitro chromosomal aberrations, Test System: Chinese hamster ovary (CHO-9) cells, Metabolic Activation: None): active; positive (structural changes); mutagenic call (End Point: In vitro micronucleus, Test System: Human lymphocytes, Metabolic Activation: None): inactive; negative; mutagenic call (Test System: AMES SALMONELLA TYPHIMURIUM, Strain/Indicator: TA98, Metabolic Activation: HAMSTER, LIVER, S-9, AROCLOR 1254 (10%), Method: PREINCUBATION): inactive; negative; mutagenic call (Test System: AMES SALMONELLA TYPHIMURIUM, Strain/Indicator: TA98, Metabolic Activation: NONE, Method: PREINCUBATION): inactive; negative; mutagenic call (Test System: AMES SALMONELLA TYPHIMURIUM, Strain/Indicator: TA98, Metabolic Activation: RAT, LIVER, S-9, AROCLOR 1254 (10%), Method: PREINCUBATION): inactive; negative; mutagenic call (Test System: AMES SALMONELLA TYPHIMURIUM, Strain/Indicator: TA100, Metabolic Activation: HAMSTER, LIVER, S-9, AROCLOR 1254 (10%), Method: PREINCUBATION): inactive; negative; mutagenic call (Test System: AMES SALMONELLA TYPHIMURIUM, Strain/Indicator: TA100, Metabolic Activation: NONE, Method: PREINCUBATION): inactive; negative; mutagenic call (Test System: AMES SALMONELLA TYPHIMURIUM, Strain/Indicator: TA100, Metabolic Activation: RAT, LIVER, S-9, AROCLOR 1254 (10%), Method: PREINCUBATION): inactive; negative; mutagenic call (Test System: AMES SALMONELLA TYPHIMURIUM, Strain/Indicator: TA1535, Metabolic Activation: HAMSTER, LIVER, S-9, AROCLOR 1254 (10%), Method: PREINCUBATION): inactive; negative; mutagenic call (Test System: AMES SALMONELLA TYPHIMURIUM, Strain/Indicator: TA1535, Metabolic Activation: NONE, Method: PREINCUBATION): inactive; negative; mutagenic call (Test System: AMES SALMONELLA TYPHIMURIUM, Strain/Indicator: TA1535, Metabolic Activation: RAT, LIVER, S-9, AROCLOR 1254 (10%), Method: PREINCUBATION): inactive; negative; mutagenic call (Test System: AMES SALMONELLA TYPHIMURIUM, Strain/Indicator: TA1537, Metabolic Activation: HAMSTER, LIVER, S-9, AROCLOR 1254 (10%), Method: PREINCUBATION): inactive; negative; mutagenic call (Test System: AMES SALMONELLA TYPHIMURIUM, Strain/Indicator: TA1537, Metabolic Activation: NONE, Method: PREINCUBATION): inactive; negative; mutagenic call (Test System: AMES SALMONELLA TYPHIMURIUM, Strain/Indicator: TA1537, Metabolic Activation: RAT, LIVER, S-9, AROCLOR 1254 (10%), Method: PREINCUBATION): inactive; negative
COc1ccc(Nc2c3ccccc3nc3ccccc23)cc1	–	–	–	–	–	–	–	–	–	–	active; positive	–	–	–	–	–
Cc1c(C(=O)O)c(O)cc2c1C(=O)c1c(O)c([C@@H]3O[C@H](CO)[C@@H](O)[C@H](O)[C@H]3O)c(O)c(O)c1C2=O	inactive; negative	inactive; negative	inactive; negative	inactive; negative	inactive; negative	inactive; negative	inactive; negative	inactive; negative	inactive; negative	inactive; negative	inactive; negative	inactive; negative	inactive; negative	inactive; negative	inactive; negative	mutagenic call (Test System: AMES SALMONELLA TYPHIMURIUM, Strain/Indicator: TA98, Metabolic Activation: NONE): inactive; negative; mutagenic call (Test System: AMES SALMONELLA TYPHIMURIUM, Strain/Indicator: TA98, Metabolic Activation: RAT, LIVER, S-9, AROCLOR 1254 (10 OR 30%)): inactive; negative; mutagenic call (Test System: AMES SALMONELLA TYPHIMURIUM, Strain/Indicator: TA100, Metabolic Activation: NONE): inactive; negative; mutagenic call (Test System: AMES SALMONELLA TYPHIMURIUM, Strain/Indicator: TA100, Metabolic Activation: RAT, LIVER, S-9, AROCLOR 1254 (10%)): inactive; negative; mutagenic call (Test System: AMES SALMONELLA TYPHIMURIUM, Strain/Indicator: TA100, Metabolic Activation: RAT, LIVER, S-9, AROCLOR 1254 (10 OR 30%)): inactive; negative; mutagenic call (Test System: AMES SALMONELLA TYPHIMURIUM, Strain/Indicator: TA1535, Metabolic Activation: NONE): inactive; negative; mutagenic call (Test System: AMES SALMONELLA TYPHIMURIUM, Strain/Indicator: TA1535, Metabolic Activation: RAT, LIVER, S-9, AROCLOR 1254 (10 OR 30%)): inactive; negative; mutagenic call (Test System: AMES SALMONELLA TYPHIMURIUM, Strain/Indicator: TA1537, Metabolic Activation: NONE): inactive; negative; mutagenic call (Test System: AMES SALMONELLA TYPHIMURIUM, Strain/Indicator: TA1537, Metabolic Activation: RAT, LIVER, S-9, AROCLOR 1254 (10 OR 30%)): inactive; negative; mutagenic call (Test System: MOUSE LYMPHOMA, Strain/Indicator: L5178Y (TK+/TK-), Metabolic Activation: NONE, Method: SUSPENSION/PLATE): active; positive. reevaluation of results: positive; mutagenic call (Test System: MOUSE LYMPHOMA, Strain/Indicator: L5178Y (TK+/TK-), Metabolic Activation: RAT, LIVER, S-9, AROCLOR 1254, Method: SUSPENSION/PLATE): active; positive. reevaluation of results: positive; mutagenic call (Test System: UDS RODENT HEPATOCYTES, Strain/Indicator: THY INCORP, Metabolic Activation: NONE, Method: AUTORADIOGRAPHY): inactive; negative
COCC(O)Cn1cc([N+](=O)[O-])nc1Cl (centres undefined)	–	inactive; negative	–	–	active; positive	–	–	–	–	–	–	–	–	–	–	mutagenic call (Test System: AMES SALMONELLA TYPHIMURIUM, Strain/Indicator: TA98, Metabolic Activation: RAT, LIVER, S-9, Method: STANDARD PLATE): active; positive; mutagenic call (Test System: AMES SALMONELLA TYPHIMURIUM, Strain/Indicator: TA100, Metabolic Activation: RAT, LIVER, S-9, Method: STANDARD PLATE): active; positive
